Measurements published in patent US10864269B2, “Therapeutic combinations comprising anti-CD73 antibodies and uses thereof” (MedImmune Limited, priority 2014, dated 2020).

Legend:
MDA-MB-231 cells = test: FabZAP antibody internalization assay, MDA-MB-231; assay type: cell-based, human; details: MDA-MB-231, 3 days
Protocol: (§1) Internalization of MEDI9447 into cell lines MDA-MB-231 (human mammary carcinoma) and 4T1 (murine mammary carcinoma) was assessed using a human Antibody Internalization Kit that is sold commercially as the FabZAP assay (Advanced Targeting Systems, San Diego Calif.). Serial dilutions of MEDI9447 or negative control antibody R347 were pre-incubated with 40 nM FabZAP reagent (Fab fragment of a polyclonal anti-human IgG antibody conjugated to the cytotoxic protein saporin) and then added to the cell lines. After 3 days in culture, cell proliferation was measured using a luminescent cell viability assay sold commercially as the CELLTITER-GLO® assay (Promega, Madison Wis.). This assay was used to calculate EC50 values and maximum toxicity. […]
(§2) Cell proliferation of MDA-MB-231 cells and 4T1 cells treated with serial dilutions of test antibody and FabZAP reagent was measured by CELLTITER-GLO® assay (FIG. 2). The signal from the negative control antibody R347 in the CELLTITER-GLO® assay was subtracted from the signal of MEDI9447 and the EC50 value and maximum toxicity were calculated by fitting the dose-response curve using non-linear regression analysis.
(§3) 1,000 cells/well were cultured in 96 well plates in RPMI/10% FBS. […] After 3 days incubation at 37C, the cell proliferation was measured using the CELLTITER-GLO® assay (Promega, Madison Wis.).

4T1 cells = test: FabZAP antibody internalization assay, 4T1; assay type: cell-based, murine; details: 4T1, 3 days
Protocol: as §1, §2, §3

[1] = biological target: T1, surface-expressed CD73, NCI-H322 cells (Homo sapiens, UniProt P21589); test: Cell-based inhibition of 5′ ectonucleotidase (CD73-catalyzed hydrolysis of AMP); details: CD73-expressing NSCLC cells, 200 μM AMP, 24 hours
T1 construct: In a cell-based assay of surface-expressed CD73; endogenous in cells; host or cells: NCI-H322
T1 sequence (P21589 27-549): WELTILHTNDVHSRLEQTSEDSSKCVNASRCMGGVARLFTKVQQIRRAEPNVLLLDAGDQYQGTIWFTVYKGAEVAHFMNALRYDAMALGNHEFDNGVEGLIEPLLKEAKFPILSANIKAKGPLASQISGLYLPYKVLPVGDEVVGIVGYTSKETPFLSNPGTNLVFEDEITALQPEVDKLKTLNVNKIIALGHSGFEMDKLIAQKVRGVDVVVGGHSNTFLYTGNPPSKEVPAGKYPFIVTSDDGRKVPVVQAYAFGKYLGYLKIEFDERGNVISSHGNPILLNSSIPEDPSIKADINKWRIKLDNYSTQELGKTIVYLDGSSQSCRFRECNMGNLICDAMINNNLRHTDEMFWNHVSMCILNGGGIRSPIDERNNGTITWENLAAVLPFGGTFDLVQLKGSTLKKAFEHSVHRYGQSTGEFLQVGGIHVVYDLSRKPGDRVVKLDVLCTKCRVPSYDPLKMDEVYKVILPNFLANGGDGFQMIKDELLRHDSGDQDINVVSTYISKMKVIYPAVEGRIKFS
Protocol: In this study, the functional activity of MEDI9447 was determined in an in vitro assay that measured the CD73-catalyzed hydrolysis of AMP using a human non-small cell carcinoma cell line, NCI-H322. Formulation of MEDI9447 was prepared by diluting its stock solution in serum-free RPMI medium to a final concentration of 1 μM. Formulation of R347 was prepared by diluting its stock solution in RPMI to a final concentration of 1 μM.
NCI-H322 cells were centrifuged for 5 minutes at 1500 rpm. The supernatant was removed and replaced with serum-free RPMI medium. The cell suspension was counted using the VI-CELL (Beckman, Coulter) cell counter. The cells were plated into 96-well plates at a cell density of 10,000 cells per 100 μLs per well. […], of 4× concentrated AMP (200 μM) was added. […] Cellular enzyme inhibition of 5′ ectonucleotidase was measured on a multilabel reader, the Perkin-Elmer Envision Workstation. The samples were analyzed using Prism Software.
The results depicted in FIG. 3 were obtained using CD73-expressing NSCLC cells that were plated into 96-well non-tissue culture treated plates (Falcon 3788) at 10,000 cells per well in 100 μL of RPMI medium without additives. […] CELLTITER-GLO® reagent (Promega) was added 1:1 and cellular CD73 enzyme AMP phosphorylase activity was determined by measuring ATP levels using the Envision luminescence plate reader (Perkin Elmer). […]

## MEDI9447: IgG1 with CD730010-derived VL of SEQ ID NO: 68 and VH of SEQ ID NO: 82
MDA-MB-231 cells
  maximum toxicity: 97%
4T1 cells
  maximum toxicity: 97%
[1]
  conversion of adenosine monophosphate to adenosine: reduced in a dose-dependent manner
